Data on eleven compounds can be found in patent publication US11192899B2 (MERCK PATENT GMBH, priority 2017, dated 2021).

pIC50: −log10 of the molar value. Where two headings read alike, the source gives them in different places.

By pIC50 is commonly meant the IC50 on a negative log10 scale, so that one unit is a factor of ten.

Experiment [1] concerns the target T1, human A2A receptor (Homo sapiens, UniProt P29274).
T1 construct: expressed in transfected cells; host or cells: HEK293
Kind of experiment: cAMP HTRF functional assay, recombinant HEK293 cells expressing human A2A receptor, agonist NECA. Type of experiment: cell-based. The protocol: (§1) The functional activities of human A2A, A2B, A1 and A3 receptors were determined by quantification of cAMP, being the second messenger for adenosine receptors.
(§2) Obtained raw data were normalized against the inhibitor control and the neural control (DMSO) and the normalized data were fitted using GeneData software.

For experiment [2], the target named is T2, human A1 receptor (Homo sapiens, UniProt P30542).
T2 construct: expressed in transfected cells; host or cells: CHO
T2 sequence (P30542 1-326): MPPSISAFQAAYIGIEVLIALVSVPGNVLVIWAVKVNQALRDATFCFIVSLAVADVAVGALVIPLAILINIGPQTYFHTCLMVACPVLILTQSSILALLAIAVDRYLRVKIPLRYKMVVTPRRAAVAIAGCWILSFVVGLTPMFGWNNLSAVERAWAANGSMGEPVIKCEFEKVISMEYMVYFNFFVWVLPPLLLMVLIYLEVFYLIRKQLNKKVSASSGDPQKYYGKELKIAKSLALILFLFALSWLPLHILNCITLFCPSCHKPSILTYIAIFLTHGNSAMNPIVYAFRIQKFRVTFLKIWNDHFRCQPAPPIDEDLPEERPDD
Kind of experiment: cAMP HTRF functional assay, recombinant CHO cells expressing human A1 receptor, forskolin and agonist CPA. Type of experiment: cell-based. The protocol: as §1
For human A1 and A3 receptors, recombinant CHO cells, expressing either A1 or A3-receptor, were used. As both receptors couple to Gi proteins, the assay protocol was adapted:
Cells were seeded into 384-well plates, forskolin, test compounds and agonists (CPA for A1- and IB-MECA for A3-receptor) were added. After 30 min incubation, HTRF reagents (cAMP dynamic 2, Cis Bio) were added and the cellular cAMP levels were determined using the ENVISION (Perkin Elmer) plate reader.
as §2
A general note: In TR-FRET formats the signal depends on donor and acceptor labels being close together.

T1 sequence (P29274 whole entry): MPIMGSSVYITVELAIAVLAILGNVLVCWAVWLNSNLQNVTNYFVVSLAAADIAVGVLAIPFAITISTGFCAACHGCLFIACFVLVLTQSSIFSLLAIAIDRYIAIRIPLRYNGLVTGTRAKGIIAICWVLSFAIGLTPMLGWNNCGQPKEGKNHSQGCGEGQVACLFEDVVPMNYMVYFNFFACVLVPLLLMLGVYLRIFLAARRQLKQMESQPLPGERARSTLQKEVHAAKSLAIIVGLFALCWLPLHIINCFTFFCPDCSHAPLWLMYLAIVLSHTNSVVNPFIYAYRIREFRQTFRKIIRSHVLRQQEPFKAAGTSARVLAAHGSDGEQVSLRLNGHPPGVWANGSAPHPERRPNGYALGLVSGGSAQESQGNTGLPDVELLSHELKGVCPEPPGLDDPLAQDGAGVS

`COc1ccc(C2=CCOCC2)c2ncc(NC(=O)C3(CN(C)C)CC3)nc12` [compound 145, N-[5-(3,6-dihydro-2H-pyran-4-yl)-8-methoxyquinoxalin-2-yl]-1-[(dimethylamino)methyl]cyclopropane-1-carboxamide]: the pIC50 in experiment [1] is above 7.00; in experiment [2], below 6.00. For `COc1ccc(-c2cccc(F)c2F)c2ncc(NC(=O)c3cnc(C)o3)nc12` [compound 125, N-[5-(2,3-difluorophenyl)-8-methoxyquinoxalin-2-yl]-2-methyl-1,3-oxazole-5-carboxamide], the pIC50 in experiment [1] was above 7.00; in experiment [2] it was above 6.00. On the same counts, the results for `COc1ccc(-c2cccnc2)c2nc(NC(=O)N3CCC(C)(O)CC3)cnc12` [compound 112, 4-hydroxy-N-[5-methoxy-8-(pyridin-3-yl)quinoxalin-2-yl]-4-methylpiperidine-1-carboxamide] are above 7.00 and below 6.00. Take `COc1ncc(C2CCOCC2)c2ncc(NC(=O)N3CCC(C)(CO)CC3)nc12` [compound 104, 4-Hydroxymethyl-4-methyl-piperidine-1-carboxylic acid [5-methoxy-8-(tetrahydro-pyran-4-yl)-pyrido[3,4-b]pyrazin-3-yl]-amide]: the pIC50 in experiment [1] was above 8.00. As for `COc1ccc(C2CCOCC2)c2ncc(NC(=O)N3CC4(C3)CS(=O)(=O)C4)nc12` [compound 18], the pIC50 in experiment [1] was above 7.00; in experiment [2], below 6.00. On the same counts, the results for `COc1ccc(N2CCCOCC2)c2ncc(NC(=O)C3CC3)nc12` [compound 161, N-[8-methoxy-5-(1,4-oxazepan-4-yl)quinoxalin-2-yl]cyclopropanecarboxamide] are above 7.00 and below 6.00. Turning to “4-Hydroxy-4-methyl-piperidine-1-carboxylic acid (5-methoxy-8-phenyl-pyrido[3,4-b]pyrazin-3-yl)-amide [compound 15]”, the pIC50 in experiment [1] (recombinant HEK293 cells, cAMP, agonist NECA) was above 7.00. Turning to `CNC(=O)c1cc(-c2ccc(OC)c3nc(NC(=O)N4CCC(C)(O)CC4)cnc23)ccn1` [compound 115, 4-{2-[(4-hydroxy-4-methylpiperidine-1-carbonyl)amino]-8-methoxyquinoxalin-5-yl}-N-methylpyridine-2-carboxamide], the pIC50 in experiment [1] was above 7.00. Regarding `COc1ccc(C2=CCOCC2)c2ncc(NC(=O)C3(C(=O)N(C)C)CC3)nc12` [compound 144, N′1-[5-(3,6-dihydro-2H-pyran-4-yl)-8-methoxyquinoxalin-2-yl]-N1,N1-dimethylcyclopropane-1,1-dicarboxamide], the negative logarithm of the IC50 (pIC50) in experiment [1] is above 7.00; in experiment [2], below 6.00. On the same counts, the results for `COc1ccc(C2=CCOCC2)c2ncc(NC(=O)c3nnc(C)s3)nc12` [compound 146, N-[5-(3,6-dihydro-2H-pyran-4-yl)-8-methoxyquinoxalin-2-yl]-5-methyl-1,3,4-thiadiazole-2-carboxamide] are above 7.00 and below 6.00. On the same counts, the results for `COc1ccc(-c2cnn(C(F)F)c2)c2ncc(NC(=O)N3CCC(C)(O)CC3)nc12` [compound 158, N-{5-[1-(difluoromethyl)-1H-pyrazol-4-yl]-8-methoxyquinoxalin-2-yl}-4-hydroxy-4-methylpiperidine-1-carboxamide] are above 7.00 and below 6.00.
